From US6537972B1, “Compositions and methods for inhibiting human immunodeficiency virus infection by down-regulating human cellular genes” (Subsidiary No. 3., Inc., priority 1997, dated 2003)

Key:
[1] = system: latent HIV provirus in OM10.1 cells; assay: Inhibition of TNF-α induction of latent HIV provirus in OM10.1 cells (CD4 / p24 by flow cytometry); assay type: cell-based, HIV-1; settings: for induction of latent HIV provirus in OM10.1 cells (retention of CD4 expression): 24 hour incubation, FIG. 25, 26; for intracellular p24 levels in treated cells: compared with untreated controls
Method: OM10.1 cells were cultured in RPMI 1640 glucose-free media prior to and during incubation with NADH dehydrogenase inhibitors and TNF-α induction. The inhibitors were added to the cells followed by TNF-α induction 1-2 hours later. The expression of CD4 by the cells was assessed by anti-CD4 antibody staining and flow cytometry after 24 hour incubation at 37° C.

[2] = system: OM10.1 cells; assay type: cell-based; settings: human, 24 h, 100 nM
[3] = system: HIV-1SF33; assay: Infection of freshly isolated human PBLs with HIV-1SF33 in the presence of mofarotene (CD3-gated flow cytometry); assay type: cell-based; settings: for % CD4+ in T cell population / % p24+ in CD4+ T population: HIV +, HIV-1SF33 TCID50 1000
Method: (§1) Human peripheral blood leukocytes (PBLs) were isolated using Ficoll-Hypaque density gradient separation. Cells were washed twice and resuspended in RPMI+10% FBS+2% human AB serum+penicillin/streptomycin/glutamine+100 Units/ml of IL-2 at a concentration of 0.5×10^6 cells/ml. PBLs were then activated with phytohemagglutinin at 0.5 μg/ml and placed in a humidified incubator at 37° C./[…]. After two days of activation, 10^6 cells were infected with HIV-1SF33 at TCID50 of 1000, in the presence of various concentrations of mofarotene: 0 μM, 1 μM, 0.5 μM, 0.1 μM, and 0.05 μM. A separate set of uninfected samples under identical concentrations of mofarotene were also maintained as controls. The samples were analyzed by flow cytometry at day 4 and day 6 post infection. The cells were gated for CD3 expression (for T cells). Then the expression of CD4 and viral p24 and CD4 was examined by bivariate dot plot.

[4] = system: human peripheral blood leukocytes (CD3+ T cells); assay: Uninfected human PBLs under mofarotene (control samples, CD3-gated flow cytometry); assay type: cell-based; settings: for % CD4+ in T cell population / % p24+ in CD4+ T population: HIV −, human PBLs; for % CD4+ in T cell population: CD3+ gated
Method: as §1

[5] = system: latent HIV-1 provirus in OM10.1 cells; assay: GSE selection by maintained CD4 expression in OM10.1 cells after TNF-α induction; assay type: cell-based; settings: GSE from HL-60 RFE library, selected in OM10.1 cells
Method: The libraries prepared from HL-60 cells according to the method of Section 6.1.1. supra, were transfected into the packaging cell line, PA317 (ATCC CRL #9078), and converted into retrovirus for infection of OM10.1 cells. Libraries in pLNCX vector were co-cultured and selected with G418. Libraries in pLNGFRM vector were transduced by spinoculation (centrifugation of target cells at 1200 xg for 90 min. in the presence of filtered retroviral supernatant) and selected by FACS sorting of the NGFR^+ population. After selection, the OM10.1 cells harboring the entire RFE library were induced with 10 U/ml of TNF-α at 37° C., and 24 hours later, were stained with an antibody and sorted for CD4 expression. Genomic DNA from the CD4^+ cells was purified and used for PCR amplification of inserts with the vector-derived primers. The amplified mixture was digested with EcoRI and BamHI and cloned back into the retroviral vector. The selection was repeated for additional rounds.
For the immunofluorescent staining of CD4^+ cells for selection, 10^7 cells were washed twice with Assay Buffer (500 ml PBS, 1 ml of 0.5 mM of EDTA at pH 8, 0.5 ml of 10% sodium azide and 10 ml of fetal bovine serum), and resuspended in 500 μl PBS to which 50 μl of anti-CD4 antibody (Q4120 PE, Sigma) was added. After incubation at 4° C. for 30 min., 5 ml of Assay Buffer was added and the cells centrifuged at 1200 rpm for 4 min. The cells were washed twice with Assay Buffer before sorting by FACS. The aforementioned procedure was performed under sterile conditions.
GSEs derived from cDNAs representing expressed human cellular genes were identified and isolated from a RFE library made from HL-60 cells using HIV provirus activation in OM10.1 cells as a read-out. Following transfection of the entire library into a packaging cell line, retrovirus carrying the library was used to infect OM10.1 cells by co-cultivation or spinoculation, and NGFR selection was performed to ensure the retention of the viral vector. When the infected cells were treated with TNF-α, a small number of residual CD4^+ cells were detected by an anti-CD4 antibody and sorted by FACS. The GSEs contained in these cells were recovered by PCR amplification and their nucleotide sequences determined.

[6] = system: HIV-1SF2; assay: Protection of GSE-transduced CEM-ss cells from productive infection with HIV-1SF2 (intracellular p24); assay type: cell-based; settings: HIV-1SF2 at TCID50 of 1000; versus LNGFRM vector control; FIG. 3, 23, 24
Method: In Section 6.2, infra, several GSEs were tested for their ability to protect CEM-ss cells from infection with HIV-1 strain SF2. Uninfected cells were transduced with a retroviral construct containing either vector DNA or a GSE polynucleotide. Non-transduced cells were eliminated by selection of NGFR^+ cells by an antibody or by exposure to the selection agent, G-418. The percentage of p24^+ cells was determined at specific time points post infection.
In order to determine p24 expression in HIV-infected cells, the cells were first washed twice with Assay Buffer. About 10^6 cells were suspended in 100 μl Assay Buffer, mixed with 2 ml of Ortho PermeaFix Solution (Ortho Diagnostics), and incubated for 40 min. at room temperature. After centrifugation at 1200 rpm for 4 min. at 4° C., the cells were resuspended in 2 ml Wash Buffer (500 ml PBS, 25 ml fetal bovine serum, 1.5% bovine serum albumin and 0.0055% EDTA) for 10 min. at room temperature. After centrifugation, the cells were resuspended in 50 μl Wash Buffer and mixed with 1:500 dilution of an IgG22, antibody for 20 min. at 4° C., followed by incubation with 5-10 μl of anti-p24 antibody (KC57-FITC, Coulter) for 30 min. at 4° C. The cells were then washed twice with Wash Buffer and analyzed by flow cytometry.
A total of twenty GSEs were isolated by the two aforementioned selection strategies using OM10.1 and CEM-ss cells. […]

[7] = mofarotene 0.05 μM, human PBLs, day 6
[8] = mofarotene 0.1 μM, human PBLs, day 6
[9] = mofarotene 0.5 μM, human PBLs, day 6
[10] = mofarotene 1.0 μM, human PBLs, day 6
[11] = mofarotene 1.0 μM, human PBLs, day 6, listed as mofarotene

C/C(=C\c1ccc(OCCN2CCOCC2)cc1)c1ccc2c(c1)C(C)(C)CCC2(C)C [Mofarotene]
cells that retained CD4 expression ([1]; 100 nM, TNF-α-induced OM10.1 cells): 80%
induction of latent HIV provirus in OM10.1 cells (retention of CD4 expression) ([1]; TNF-α-induced OM10.1 cells): inhibited HIV-1 induction at even lower concentrations
intracellular p24 levels in treated cells [1]: suppressed intracellular p24 levels
cells that remained viable [2]: greater than 80%
depletion of CD4+ T cells by HIV infection ([3]; 1 μM, day 6, human PBLs): inhibited the depletion of CD4^+ T cells
% CD4+ in T cell population [3, 7]: 18%
% p24+ in CD4+ T population [3, 7]: 20.5%
% CD4+ in T cell population [3, 8]: 28%
% p24+ in CD4+ T population [3, 8]: 11.4%
% CD4+ in T cell population [3, 9]: 24%
% p24+ in CD4+ T population [3, 9]: 12.5%
% CD4+ in T cell population [3, 10]: 25%
% p24+ in CD4+ T population [3, 10]: 10%
% CD4+ in T cell population [3, 11]: ~25%
% p24+ in CD4+ T population [3, 11]: 10%
difference between HIV-infected PBLs with or without mofarotene ([3]; day 4 post-infection): little detectable difference
% CD4+ in T cell population ([4]; mofarotene 0.05 μM, day 6): 33%
% p24+ in CD4+ T population ([4]; mofarotene 0.05 μM, day 6): 0%
% CD4+ in T cell population ([4]; mofarotene 0.1 μM, day 6): 34%
% p24+ in CD4+ T population ([4]; mofarotene 0.1 μM, day 6): 0%
% CD4+ in T cell population ([4]; mofarotene 0.5 μM, day 6): 34%
% p24+ in CD4+ T population ([4]; mofarotene 0.5 μM, day 6): 0%
% CD4+ in T cell population ([4]; mofarotene 1.0 μM, day 6): 36%
% p24+ in CD4+ T population ([4]; mofarotene 1.0 μM, day 6): 0%
percentage of CD4+ T cells, compound alone ([4]; day 4, uninfected samples): did not significantly alter
expression level of CD3 on the cell surface ([4]; day 6): did not alter
increase of the percentage of CD4+ T cells in uninfected samples, compound alone ([4]; day 6, effect called minimal): up to 4%

CCC1(CCC(C)C)C(=O)NC(=O)NC1=O [amytal]
induction of latent HIV provirus in OM10.1 cells (retention of CD4 expression) ([1]; TNF-α-induced OM10.1 cells): inhibited the induction of latent HIV provirus in OM10.1 cells in a dose-dependent manner
intracellular p24 levels in treated cells [1]: suppressed intracellular p24 levels

B1: CF-319: GSE; sense, identity with the gene for the ND6 subunit of human NADH dehydrogenase (nucleic acid)
sense: GATCCTCCCGAATCAACCCTGACCCCTCTCCTTCATAAATTATTCAGCTTCCTACACTATTAAAGTTTACCACAACCACCACGCCATCATACTCCTTCAC
suppression of HIV replication by the GSE [5]: suppresses HIV replication

B2: CF-315: GSE; antisense of a sequence with identity to the gene for the ND6 subunit of human NADH dehydrogenase (nucleic acid)
antisense: AGATCCTATTGGTGCGTGGGCTTTGTATGATTATGGGCGTAGATTAGTAGTAGTTACTGGTTGAACATTGTTTGTTGGTGTATATATTGTAATTGGGATTGCTCGGGGGAATAGGTTATGTGATTAGGAGTAGGG
productive HIV infection of GSE-containing CEM-ss cells (intracellular p24+ cells) [6]: inhibited infection of human T cells by HIV-1SF2
suppression of HIV replication by the GSE [5]: suppresses HIV replication

B3: CF-101: GSE; sense, identity with the gene for the ND2 subunit of human NADH dehydrogenase (nucleic acid)
sense: CATCAGCCCTTCTTAACATCTACTTCTACCTACGCCTAATCTACTCCACCTCAATCACACTACTCCCCATATCTAACAACGTAAAAATAAAATGACAGTTTGAGCATACAAAACCCACCCCATTCCTCCCCACACTCATCGCC
suppression of HIV replication by the GSE [5]: HIV-suppressive activities

B4: CF-117: GSE; antisense, gene for the ND6 subunit of human NADH dehydrogenase (nucleic acid)
antisense: GTGAAAGAGTATGATGGGGTGGTGGTTGTCGTAAACTTTAATAGTGTAGGAAGCTGAATAATTTATAAAGGAGAGGGGACAGGGTTGATTCGGGAGGATC
suppression of HIV replication by the GSE [5]: suppresses HIV activities
